Columns and labels:
[1] = system: CD4^+CD62L^+ naïve T cells; experiment: In vitro Th1 polarization: proliferation and cytokine production; type: cell-based, mouse
Experimental: Mouse splenocytes were first removed isolated from DO11.10 mice, which express an MHC class II restricted T cell receptor specific for OVA323-339. Mouse CD4^+ T cells were purified using a Miltenyi CD4^+ T cell negative isolation kit (Cat#130-090-860). […] CD4^+CD62L^+ naïve T cells with or without CD25^+ T cells were cultured in serum free HL-1 media in the presence of rIL-2 (1 ng/mL), rIL-12 (4 ng/mL) and anti-IL-4 (1 μg/mL). Activity of murine B7-H4-Ig was tested in a number of formats (soluble and insoluble presentation of B7-H4-Ig). Murine B7-H4-Ig was also assessed for activity on T cells activated non-specifically or with antigen-specific stimulation. To provide murine B7-H4-Ig in an immobilized format, 96-well flat bottom plates were first coated with murine B7-H4-Ig, 100 μl per well at 1 μg/mL, and incubated at 37° C. for 2 hours. […] For non-specific antigen activation, Mouse CD3/CD28 T Cell Expander beads (Dynabeads®; Invitrogen, Cat#11452D) were added into each well, at a 1:1 cell to bead ratio. For OVA specific activation, splenocytes were first isolated from Balb/C mice as antigen presenting cells (APC) followed by irradiation at 3000 rads for 45 minutes and then added into each well, at a 1:1, APC to responder cell, ratio. OVA323-339 peptide was added into the culture at 20 μg/mL. [^3H]-Thymidine (1 μCi/well) was added into each well 24 hr post co-incubation. Proliferation was determined by uptake of [^3H]-thymidine detected at 48 hr post [^3H]-thymidine addition using a Topcount Microplate Scintillation Counter (Packard Instruments, Meridan, Conn.). Results are expressed as the mean of triplicate cultures±SEM. Supernatants were collected from plates without [^3H]-Thymidine at 72 hr for cytokine analysis. Cytokine measurements were performed using the Mouse Cytokine 10-Plex system (Millipore) and Luminex Liquidchip analyzer (Qiagen, Valencia, Calif.) or ELISA. The human and mouse B7-H4 proteins are 95% homologous. Human B7-H4-Ig was tested for cross-reactivity with murine T cells. Naïve CD4^+ T cells were isolated as described above. Upon purification, murine naïve CD4^+ T cells were polarized in the presence of IL-2, IL-12 and anti-IL4 for Th1 cell-promoting conditions, or TGF-β, IL-6, IL-23, anti-IL4, anti-IFNγ and anti-IL-2 for Th17 cell-promoting conditions, as described in Example 5 for murine B7-H4-Ig in vitro bioactivity. Human B7-H4-Ig was directly added into the culture at 0, 0.1, 1 or 10 μg/mL. Human Control IgG1 (Synagis®) was added into the culture to bring the final protein concentration to 10 μg/mL. […] After depletion of CD4^+CD25^+ T cells, CD25^+/P3^+ cells were decreased from approximately 5% to 1%.

[2] = system: CD4^+ T cells, Treg cells, effector/memory CD4^+ T cells; experiment: T cell subsets in spleen, draining lymph nodes and CNS of R-EAE mice (FACS, immunochemical staining); type: in vivo, mouse
Excerpt: Mice were anesthetized with nembutal and perfused with phosphate-buffered saline (PBS). Brains and spinal cords from each mouse were frozen in OCT (Miles Laboratories; Elkhart, Ind.) in liquid nitrogen. Tissue from the lower lumbar region of the spinal cord was sectioned at 6 μm on a Reichert-Jung 1800 cryotome and mounted on Superfrost Plus electrostatically charged slides. Cross-sections (10 μm thick for brains and 6 μm for spinal cords) from longitudinal sections of brain and spinal cord were performed. Tissues were stained with biotin-conjugated antibody to mouse CD4, PLP and FoxP3. Positive staining of biotinylated antibodies was visualized by a Tyramide Signal Amplification (TSA) Direct kit (NEN, Boston, Mass.) according to manufacturer's instructions and fluorescein anti-mouse IgG (Vector Laboratories). Sections were counterstained with 4,6-diamidino-2-phenylindole (DAPI; Sigma-Aldrich) and then coverslipped with Vectashieldmounting medium (Vector Laboratories). Slides were examined and images were acquired via epifluorescence using the SPOT RT camera (Diagnostic Instruments, Sterling Heights, Mich.). Sections from each group were analyzed at 40 or 100× magnification.
The effect of B7-H4-Ig treatment on the number of Treg cells in vivo was analyzed in this study. The effect of B7-H4-Ig on the number and phenotype of CD4^+ T cells infiltrating into the CNS following B7-H4-Ig treatment, the relevant site for activity in vivo, was determined. […] SJL mice were first immunized with PLP139-151 peptide. B7-H4-Ig treatment started during remission (Day 23). Mice received mouse Control IgG, 100 μg, or B7-H4-Ig at either 60 or 300 μg, 3 times per week for 2 weeks or 4 weeks. Half of the animals (5 mice from each group) were euthanized on Day 35, after 6 doses of B7-H4-Ig. The rest of the animals (5 mice from each group) were euthanized on Day 50, after 12 doses of B7-H4-Ig. Mouse spleens, draining lymph nodes, spinal cords and brains were collected, tissues were made into a single cell suspension and counted via the use of a hemocytometer, and analyzed for the presence of effector/memory CD4^+ T cells (CD4^+CD44^+) and Treg cells (CD4^+CD25^+FoxP3^+). Whole cerebellar and lumbar spinal cord tissue samples were snap frozen and processed as described above to analyze the number of CD4^+ and FoxP3^+ cells present within the CNS by histology.
Cells isolated from spleen, draining lymph node and also lumbar spinal cord were stained for CD4, CD44 and FoxP3 followed by FACS analysis to obtain the number of total CD4^+ T cells, Treg (CD4^+/Foxp3^+) and effector/memory CD4^+ T cells (CD4^+/CD44^+). The data is presented in FIGS. 43A, 43B, and 43C as the mean number of cells for each phenotype from individual mouse. […] Similar data was obtained after the full course of 12 treatments.

Human B7-H4-Ig: human B7-H4 extracellular domain fused to hinge, CH2 and CH3 regions of human immunoglobulin Cγ1 chain; representative SEQ ID NOs:114-137
IFN-γ production in Th1 cells ([1]; 0, 0.1, 1 or 10 μg/mL in solution, anti-CD3/CD28 beads (FIG. 27)): reduced IFN-γ production
murine Th1 proliferation ([1]; 0, 0.1, 1 or 10 μg/mL in solution, anti-CD3/CD28 beads, dose dependent (FIG. 26)): blocked murine Th1/Th17 proliferation

B7-H4-Ig: B7-H4 extracellular domain fused to Ig Fc; bare label is the human protein in Example 3, murine protein in Examples 1, 2, 5, 7-11
decrease in IFN-γ production ([1]; Th1 conditions, APC/OVA, CD25+ T cells depleted (open triangles), various doses (FIG. 29A)): dose dependent
inhibition of IFN-γ production ([1]; Th1 conditions, APC/OVA, in the presence of CD4+CD25+ Treg cells (solid triangle) (FIG. 29A)): more profound
IL-10 production ([1]; Th1 conditions, APC/OVA, solid triangles (FIG. 29B)): increased IL-10 production in a dose dependent manner
amount of Treg cells in the CNS ([2]; FIG. 43C): appeared constant
number of Treg (CD4+/FoxP3+) cells within the spleen and lymph node ([2]; R-EAE mice treated during remission (FIGS. 43A, 43B)): remarkably increased
level of demyelination via anti-PLP staining ([2]; control IgG vs B7-H4-Ig treated mice): no significant difference in the level of demyelination
number of FoxP3+ cells within the CNS (histology) ([2]; lumbar spinal cord cross sections): increases the number of FoxP3^+ cells within the CNS
percentage of Treg cells among CD4+ T cells in the CNS ([2]; vs Control IgG injected mice (FIG. 44)): significantly higher
effector/memory T cells (CD4+/CD44+) within the CNS ([2]; vs Control IgG treated mice (FIG. 43C)): decreased

Source: patent US9011853B2, “B7-H4 fusion proteins and methods of use thereof” (Amplimmune, Inc., priority 2009, dated 2015)
